110 compounds from a melting point compilation (Tetko et al.) can be followed below.

`N#CN=C(Oc1ccccc1)Oc1ccccc1` displayed a melting point of 157 °C.

In turn, `CN1C(c2cccnc2)N(C)[C@@H](c2ccccc2)[C@@H]1c1ccccc1` came in with a melting point of 99 to 102 °C.

With `O=C(c1ccccc1)c1noc(-c2ccccc2)c1S(=O)(=O)c1ccccc1`, the melting point was 188 °C.

Take `NNC(=O)CNc1nc(N)n[nH]1`: the melting point is 225 °C.

Compound `c1ccc(N(c2ccccc2)c2ccccc2)cc1` returned a melting point of 127 °C.

`COc1ccc(CO)cc1OCc1ccccc1` showed a melting point of 85 °C.

`O=C(O)c1cc(O)c(O)c(O)c1` registered a melting point of 253 °C.

The compound `C#CC1(O)CCC2C3CCc4cc(OC5CCCC5)ccc4C3CCC21C` (stereo not given) registered a melting point of 108 °C.

For `O=C(O)c1ccc(N2CCCC2)cc1`, the melting point was 230 °C.

Regarding `CCCCCCCCCCCCCCCC(=O)NCCO`, the melting point was 98.5 °C.

As to `Cn1nc(-c2ccc(C=O)s2)cc1C(F)(F)F`, the melting point was in the range of 80 to 81 °C.

`N#C/C(=C/c1cccnc1)c1nc(-c2ccc(Cl)cc2)cs1` showed a melting point of 253 °C.

In turn, `COc1ccc2c(c1C)CC2=O` gave a melting point of 72 to 73 °C.

`O=C(Cc1ccc(-c2ccccc2)cc1)Nc1ccccn1` returned a melting point of 122 °C.

Compound `CCOC(=O)C(C#N)=Cc1ccccc1Cl` had a melting point of 88 °C.

For the compound `FC1(F)C(F)(F)C(F)(F)C2(F)C(F)(F)C(F)(F)C(F)(F)C(F)(F)C2(F)C1(F)F` (stereo not given), the melting point is -10 °C.

In the case of `CC(=O)OC[C@H]1O[C@@H](OC(C)=O)[C@H](OC(C)=O)[C@@H]1OC(C)=O`, the melting point lay in the range of 79 to 81 °C.

Take `CC(C)(C)OC(=O)N1CCN(c2cc(C#N)ccn2)CC1`: the melting point lay in the range of 127 to 129 °C.

Regarding `O=C(Cl)c1ccccc1Oc1ccccc1`, the melting point is 37 to 39 °C.

Turning to `CC1(C(=O)O)CCC2(C)CCC3(C)C(=CC(=O)C4C5(C)CCC(OC(=O)CCC(=O)O)C(C)(C)C5CCC43C)C2C1` (stereo not given), the melting point is 292 °C.

On to `Clc1ccc(N2CCNCC2)cc1Cl`, for which the melting point came to 63 °C.

The compound `O=C(O)C=CC(=O)Nc1ccc(F)cc1F` came in with a melting point of 191 °C.

Compound `O=C(O)c1cccnc1C(=O)O` had a melting point of 228 °C.

As to `CCOc1nc(F)cc2nc(S(=O)(=O)Nc3c(Cl)cccc3C(=O)OC)nn12`, the melting point turned out to be 217 °C.

In turn, `O=C(O)Cc1cc(O)c(CC(=O)O)cc1O` gave a melting point of 234 to 236 °C.

On to `CN(C)C(=N)N(C)C`, for which the melting point is -30 °C.

Take `CCCC(=O)Nc1ccccc1`: the melting point was found to be 97 °C.

For the compound `N#CC(C#N)=C1C(=O)NN(c2ccccc2)C1=O`, the melting point came to 289 °C.

For `COc1cc(C(c2ccc(C)o2)c2ccc(C)o2)c([N+](=O)[O-])cc1OC`, the melting point is 98 °C.

For the compound `O=C(Cc1ccc(Oc2ccccc2)cc1)c1ccccc1`, the melting point lay in the range of 58.3 to 59.9 °C.

`CCNS(=O)(=O)C(F)(F)C(F)(F)C(F)(F)C(F)(F)C(F)(F)C(F)(F)C(F)(F)C(F)(F)F` gave a melting point of 96 °C.

Regarding `COc1cc2c(cc1OC)C(C(=O)O)C2` (stereo not given), the melting point was 134 to 143 °C.

For `O=C(O)CCC12CC3CC(CC(C3)C1)C2`, the melting point lay in the range of 147 to 148 °C.

In turn, `O=C(O)c1ccc(C(F)(F)F)c(F)c1` came in with a melting point of 175 °C.

`CC(=O)Nc1ccccc1OC(F)(F)F` gave a melting point of 68 to 70 °C.

Compound `CCCCC(=O)OCC(=O)C1C(C)CC2C3CC(F)C4=CC(=O)C=CC4(C)C3(F)C(O)CC21C` (stereo not given) came in with a melting point of 195 °C.

The compound `Nc1cc(N)nc(N)n1` showed a melting point of 250 °C.

In the case of `c1ccc2c(c1)oc1ccccc12`, the melting point worked out at 86.5 °C.

The compound `Oc1cc(F)cc(F)c1` registered a melting point of 53 °C.

Regarding `OC(c1c(F)c(F)c(F)c(F)c1F)c1c(F)c(F)c(F)c(F)c1F`, the melting point lay in the range of 76 to 80 °C.

Regarding `Cc1nc(C(F)(F)F)c(C(=O)Nc2c(Br)cc(OC(F)(F)F)cc2Br)s1`, the melting point is 178 °C.

The compound `COc1ccc(C(=O)c2noc(-c3ccc(C)cc3)c2S(=O)(=O)c2ccccc2)cc1` showed a melting point of 156 °C.

The compound `C[Si]1(C)O[Si](C)(C)O[Si](C)(C)O[Si](C)(C)O[Si](C)(C)O1` came in with a melting point of -38 °C.

Turning to `O[C@H]1CCC[C@@H]1O`, the melting point amounted to 55 °C.

`COc1cc(OC)cc(C(N)=O)c1`: the melting point amounted to 144 °C.

In the case of `CCCc1c(C)nc(NC(=O)NS(=O)(=O)c2cccs2)nc1Cl`, the melting point lay within 171 to 173 °C.

Compound `CC(C)(C)OC(=O)N1CCN(CCO)CC1` yielded a melting point of 39 to 43 °C.

In turn, `COc1cc(NC(=S)NN)cc(OC)c1OC` displayed a melting point of 178 to 179 °C.

Compound `C=C1CCOC2(C(O)C(C)(O)CO)NC(=O)C1(O)NC2=O` (stereo not given) had a melting point of 188 °C.

`Cc1cc2occ(C#N)c(=O)c2cc1C` displayed a melting point of 206 to 210 °C.

As to `O=C(O)CCC1CCCCCCCCCCC1=O` (stereo not given), the melting point fell in the range of 88 to 90 °C.

For `NC(COc1ccccc1)=NO`, the melting point was 93 to 94 °C.

In the case of `CC1=C(C#N)C(c2cccc([N+](=O)[O-])c2)C(C(=O)OC(C)(C)C)=C(C)N1` (stereo not given), the melting point came out at 61 °C.

In turn, `O=C(O)C1=Cc2ccccc2OC1` came in with a melting point of 150 °C.

`CC(=O)Nc1ccccc1Br` had a melting point of 99 °C.

In turn, `Nc1c([N+](=O)[O-])cc(F)c(F)c1F` showed a melting point of 46 to 48 °C.

In turn, `CC/C(=N\O)C1CC2(C)CCC1C2(C)C` (stereo not given) had a melting point of 92.5 °C.

As for `CC(C)(C)c1cc(CC#N)cc(C(C)(C)C)c1O`, the melting point turned out to be 111 °C.

Turning to `CC(=O)C1(C)CCC2C3CCC4=CC(=O)CCC4=C3CCC21C` (stereo not given), the melting point was found to be 106 °C.

`COc1cccc2c(=O)c(=O)c12` showed a melting point of 119 °C.

For the compound `O=C(CCl)c1cc(Br)c(Cl)s1`, the melting point was in the range of 77 to 78 °C.

The compound `CC(=O)c1ccc(OCCCCCBr)cc1O` registered a melting point of 63 to 66 °C.

Turning to `Cc1csc(NS(=O)(=O)c2ccc(N)cc2)n1`, the melting point stood at 237 °C.

In the case of `CCCCC(CC)CNCC(CC)CCCC` (stereo not given), the melting point was -60 °C.

`CCN(CC)CCc1c[nH]c2ccccc12`: the melting point came to 170 °C.

For the compound `Nc1ncnc2[nH]nnc12`, the melting point was greater than 300 °C.

As for `COc1cc(O)c2c(=O)cc(-c3ccc(O)cc3)oc2c1`, the melting point came to 289 °C.

On to `CC(C)(C)c1cc(C(C)(C)C)c(O)cc1O`, for which the melting point fell in the range of 120 to 121 °C.

`Sc1ncccn1` had a melting point of 230 °C.

On to `CC(=O)Oc1ccc(Br)cc1`, for which the melting point came to 21 °C.

With `O=C(Br)c1ccccc1`, the melting point is -24 °C.

The compound `COc1cc(Cl)c(OC)cc1Cl` registered a melting point of 134 °C.

On to `CC(C)c1ccccc1`, for which the melting point was -96 °C.

`Cc1ncc(CO)c(C(=O)O)c1O` yielded a melting point of 248 °C.

Compound `N#Cc1cc(F)c(Cl)nc1Cl` displayed a melting point of 91 °C.

With `O=C1NN(c2ccccc2)C(=O)C1(Br)Br`, the melting point is 119 °C.

`COC(=O)C1=C(C(=O)OC)Cc2cc3c(cc2C1)CC(C(=O)OC)=C(C(=O)OC)C3` returned a melting point of 209 °C.

For the compound `C=CC(=O)OCCN(C)C`, the melting point was -60 °C.

On to `NC(Cc1c[nH]c2ccc(F)cc12)C(=O)O` (racemic), for which the melting point was 238 to 239 °C.

As to `CC(C)C1=CCC2C(=C1)CCC1C(C)(C(=O)O)CCCC21C` (stereo not given), the melting point worked out at 150 °C.

Compound `OC1NN(c2ccccc2)C(O)C1=Cc1ccc2c(c1)OCO2` (stereo not given) came in with a melting point of 290 °C.

Turning to `Nc1cccc(N)c1N`, the melting point worked out at 103 °C.

On to `Nc1ccc(CC(=O)c2ccc(N)cc2)cc1`, for which the melting point is 145 °C.

Turning to `C=C=N`, the melting point was -78 °C.

For `CCNc1nc(NC(C)CC)nc(OC)n1` (stereo not given), the melting point worked out at 87 °C.

Turning to `O=c1[nH]c2ccccc2n1-c1ccccc1`, the melting point is 207 °C.

Compound `C=C(C)CCCCCCCCCC` had a melting point of -31 °C.

As to `CC1=NNC(=O)C1=NNc1ccc(Cl)cc1`, the melting point was 215 °C.

As for `O=S(O)c1ccccc1`, the melting point came out at 84 °C.

For the compound `COC1=CC2C3Cc4ccc(OC)c(O)c4C2(CCN3C)CC1=O` (stereo not given), the melting point was 162 °C.

In turn, `O=C(c1ccc(Cl)cc1)C(Br)c1ccccc1` (stereo not given) gave a melting point of 65 to 66 °C.

As for `OCCN(CCO)CCc1ccc(COc2ccccc2)cc1`, the melting point is 83 °C.

For `N#Cc1ccc(Br)cc1F`, the melting point turned out to be 71 °C.

In the case of `N#Cc1ccc(N2CCNCC2)nc1`, the melting point is 131 °C.

The compound `Cn1cc(-c2ccccc2)c(=O)c(-c2cccc(C(F)(F)F)c2)c1` had a melting point of 154 °C.

With `O=C(O)C(CO)c1ccccc1` (stereo not given), the melting point stood at 118 °C.

With `Cc1ccc(C=C2C(=O)OC(C)(C)OC2=O)o1`, the melting point stood at 93 °C.

For the compound `COc1cccc(OC)c1N=C=O`, the melting point lay in the range of 45 to 47 °C.

The compound `O=C1NC(=O)C(c2ccccc2)(c2ccccc2)N1` returned a melting point of 295 °C.

With `CCSCc1ccccc1OC(=O)NC`, the melting point worked out at 33.4 °C.

As for `CCCCCCC(O)CCCCCCCCCCC(=O)O` (stereo not given), the melting point amounted to 77.8 °C.

For the compound `OCc1cc(O)ccc1I`, the melting point fell in the range of 146 to 148 °C.

Compound `CC12CCC(C(=O)Cl)(OC1=O)C2(C)C` (stereo not given) returned a melting point of 66 °C.

Compound `Brc1nc(Br)n(Cc2ccccc2)n1` gave a melting point of 60 to 65 °C.

Regarding `CC(C)(C)c1nnc(N)s1`, the melting point was 183 °C.

`COc1ccc2c(c1)CC1(CCC(O)(c3ccc(C(C)(C)C)cc3)CC1)C2=O` (stereo not given): the melting point lay in the range of 183 to 184 °C.

The compound `Nc1ccc(C(=O)Oc2ccccc2)c(O)c1` registered a melting point of 153 °C.

As for `O=[N+]([O-])c1ccc(C(Br)C(Br)c2cccc3ccccc23)c([N+](=O)[O-])c1` (stereo not given), the melting point is 161 °C.

`O=Cc1cccc(-c2ccsc2)c1` yielded a melting point of 48 to 49 °C.

For `CC=CC=C(C)C`, the melting point was -74.2 °C.
